Measured values: US8637549B2, “Pyridons as PDK1 inhibitors” (Boehringer Ingelheim International GmbH, priority 2008, dated 2014)
Marks after values point to notes of the source that are not given here.

Assays:
[1] = target: T1, ΔPH-PDK1 (shortened PDK1 enzyme aa 51-359; Q66A mutation) (Homo sapiens, UniProt O15530, Q66A); assay: PDK1 kinase assay II; format: biochemical; details: 10 μM compound, residual enzyme activity relative to DMSO control, values marked with asterisk (*)
T1 construct: a shortened PDK1 enzyme (aa 51-359; Q66A mutation) is used; His6 (N, cleaved yes); made in house
T1 sequence (O15530 51-359 Q66A): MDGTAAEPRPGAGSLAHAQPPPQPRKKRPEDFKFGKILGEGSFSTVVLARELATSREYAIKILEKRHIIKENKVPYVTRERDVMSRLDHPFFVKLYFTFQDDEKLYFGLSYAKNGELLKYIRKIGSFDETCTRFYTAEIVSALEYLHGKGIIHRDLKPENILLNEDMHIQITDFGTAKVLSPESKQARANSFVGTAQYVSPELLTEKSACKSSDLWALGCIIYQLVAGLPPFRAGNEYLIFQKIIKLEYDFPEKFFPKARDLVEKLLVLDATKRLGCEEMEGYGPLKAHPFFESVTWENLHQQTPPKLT
Method: Another assay was developed in which a shortened PDK1 enzyme (aa 51-359; Q66A mutation) is used that carries in the N-terminal position a His6 tag that is cleaved during purification. (ΔPH-PDK1). […]
The reaction is started by adding the ATP solution and the mixture is incubated for 120 min at ambient temperature; at the start of the reaction the dishes are shaken gently. […] Then the plate is stuck down with sealing tape, 25 μL/well of scintillation solution (Microscint 0; Messrs. Perkin Elmer; No. 6013611) are added and the amount of P33 precipitated is measured using the Wallac Betacounter. The measured data are evaluated using Graphpad Prism software.
(§1) The % CTL values indicate the residual activity of the enzyme after the addition of the inhibitory compound in the solvent DMSO in relation to the enzyme activity in the solvent DMSO without the addition of a compound (control). The majority of the values were determined using the PDK1 kinase assay III described hereinbefore. The values marked with an asterisk (*) were determined using the PDK1 kinase assay II described hereinbefore.

His6-PDK1 (aa 52-556) = target: T2, His6-PDK1 (aa 52-556) (Homo sapiens, UniProt O15530); assay: PDK1 kinase assay III (with Tween 20); format: biochemical; details: 10 μM compound, residual enzyme activity relative to DMSO control, unmarked values, read-out: % CTL
T2 construct: 15 μL His6-PDK1 (aa 52-556) 3.33 ng/well) and PDKtide; host or cells: baculovirus-infected insect cells
T2 sequence (O15530 52-556): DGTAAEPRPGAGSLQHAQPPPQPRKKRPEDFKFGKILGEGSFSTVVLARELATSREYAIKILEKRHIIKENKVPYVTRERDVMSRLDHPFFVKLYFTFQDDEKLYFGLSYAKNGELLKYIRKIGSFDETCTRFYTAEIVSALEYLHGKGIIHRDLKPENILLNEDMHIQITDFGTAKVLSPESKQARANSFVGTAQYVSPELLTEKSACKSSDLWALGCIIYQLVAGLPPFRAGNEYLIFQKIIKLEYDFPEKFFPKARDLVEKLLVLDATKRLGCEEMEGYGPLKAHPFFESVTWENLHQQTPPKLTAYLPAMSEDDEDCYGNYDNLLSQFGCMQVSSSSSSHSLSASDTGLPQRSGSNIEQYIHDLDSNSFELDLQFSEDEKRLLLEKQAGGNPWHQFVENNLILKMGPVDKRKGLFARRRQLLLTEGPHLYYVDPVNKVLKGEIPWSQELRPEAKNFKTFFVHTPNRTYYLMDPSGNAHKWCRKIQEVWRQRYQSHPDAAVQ
Method: Another PDK1 assay was developed which by comparison with PDK1 assay 1 additionally contains Tween 20:
The following components are combined in a well of a 96-well round-based dish (Messrs. Greiner bio-one, No. 650101): • 15 μL of compound to be tested in varying concentrations (e.g. Starting at 10 μM, and diluted in steps of 1:5) in APT buffer (50 mM tris/C1 pH7.5; 0.05% β-mercaptoethanol; 10 mM Mg-acetate; 0.0166% Tween 20; 3.33% DMSO) • 15 μL His6-PDK1 (aa 52-556) 3.33 ng/well) and PDKtide (KTFCGTPEYLAPEVRRE […]), synthesised by Pepceuticals Limited, Nottingham, United Kingdom; 25 μM final concentration); His6-PDK1 and PDKtide are together diluted accordingly in assay buffer (50 mM tris pH 7.5, 0.05% β-mercaptoethanol, 10 mM Mg-acetate); PDKtide is present in this mixture as an 83.3 μM solution. These 30 μL are routinely incubated for 30 min at RT. • 20 μL ATP solution (25 μM ATP with 1.0 μCi/well gamma-P33-ATP). The final concentration of Tween 20 is 0.005%.
The reaction is started by adding the ATP solution and the mixture is incubated for 90 min at ambient temperature; at the start of the reaction the dishes are shaken gently. The reaction is stopped by the addition of 50 μL/well of 500 mM phosphoric acid (H3PO4) and incubated for about 20 min at ambient temperature. The precipitate is transferred by harvesting onto filter plates (96-well microtitre filter plate: UniFilter GF/C; Messrs Perkin Elmer; No. 6005174), then washed 6 times with 50 mM H3PO4 and dried at 60° C. Then the plate is stuck down with sealing tape, 25 μL/well of scintillation solution (Microscint 0; Messrs. Perkin Elmer; No. 6013611) are added and the amount of P33 precipitated is measured using the Wallac Betacounter. The measured data are evaluated using Graphpad Prism software.
as §1

SMILES | % CTL [1] | remaining activity at 10 µM (His6-PDK1 (aa 52-556)) [%]
CN(C)Cc1ccc(Nc2ncc3cc(C#CCNC(=O)c4cccn(Cc5cccnc5)c4=O)ccc3n2)cc1 [II-5, N-{3-[2-({4-[(dimethylamino)methyl]phenyl}amino)quinazolin-6-yl]prop-2-yn-1-yl}-2-oxo-1-(pyridin-3-ylmethyl)-1,2-dihydropyridine-3-carboxamide] | 15.6* % | 
CN1CCC(N(C)c2ccc(Nc3ncc4cc(C#CCNC(=O)c5cccn(Cc6ccc(C(F)(F)F)nc6)c5=O)ccc4n3)cc2)CC1 [II-8, N-{3-[2-({4-[methyl(1-methylpiperidin-4-yl)amino]phenyl}amino)quinazolin-6-yl]prop-2-yn-1-yl}-2-oxo-1-{[6-(trifluoromethyl)pyridin-3-yl]methyl}-1,2-dihydropyridine-3-carboxamide] | 47.0* % | 
CN1CCC(N(C)c2ccc(Nc3ncc4cc(/C=C/CNC(=O)c5cccn(Cc6ccc(C(F)(F)F)nc6)c5=O)ccc4n3)cc2)CC1 [III-15, N-{(2E)-3-[2-({4-[methyl(1-methylpiperidin-4-yl)amino]phenyl}amino)quinazolin-6-yl]prop-2-en-1-yl}-2-oxo-1-{[6-(trifluoromethyl)pyridin-3-yl]methyl}-1,2-dihydropyridine-3-carboxamide] |  | 21
CN(C)Cc1ccc(Nc2ncc3cc(/C=C/CNC(=O)c4cccn(Cc5ccc(C(F)(F)F)nc5)c4=O)ccc3n2)cc1 [III-16, N-{(2E)-3-[2-({4-[(dimethylamino)methyl]phenyl}amino)quinazolin-6-yl]prop-2-en-1-yl}-2-oxo-1-{[6-(trifluoromethyl)pyridin-3-yl]methyl}-1,2-dihydropyridine-3-carboxamide] |  | 19.2
